Test results taken from patent publication US12053522B2, “Pro-inflammatory and anti-cancer functions of toll-like receptor 4 antagonists” (Children's Medical Center Corporation, priority 2015, dated 2024).

Columns and labels:
Type in all cases: cell-based, mouse
[1] = system: bone marrow derived DCs; assay: IL-1β release from DCs (ELISA)
Method: NLRP3 KO and ASC KO mice were kindly provided by Dr. T. Horng, Harvard School of Public Health. Caspase-11 KO mice were kindly provided by Dr. Junying Yuan, Harvard Medical School. Caspase-1 single KO mice were kindly provided by Thirumala-Devi Kanneganti (St. Judes). DCs were differentiated from bone marrow in IMDM (Gibco), 10% B16-GM-CSF derived supernatant, 2 μM 2-mercaptoethanol and 10% FBS and used after 6 day of culture. […] MO were differentiated from bone marrow in DMEM (Gibco), 30% L929 supernatant, and 10% FBS. Immortal MΦs were cultured in DMEM supplemented with 10% L929 supernatant and 10% FBS. […] For experiments using pan-caspase inhibitor, cells were treated with zVADfmk (20 μM) 30 min before inflammasome activation stimuli addition. Cycloheximide (50 ng/ml) was added at the time of stimuli administration. Transfection with DOTAP was performed following the manufacturer instructions. […] 30 min later, the DOTAP/LPS or DOTAP/oxPAPC complex were added to the culture.
(§1) RNA was isolated from cell cultures using Qiashedder (Qiagen) and GeneJET RNA Purification Kit (Life Technologies). Purified RNA was analyzed for gene expression on a CFX384 real time cycler (Bio-rad) using TaqMan RNA-to-CT 1-Step Kit (Applied Biosystems) with probes purchased from Life Technologies specific for viperin (Mm00491265_m1), IFNb1 (Mm00439552_s1), IL6 (Mm00446190_m1), caspase-1 (Mm00438023_m1), caspase-11 (Mm00432307_m1), Nlrp3 (Mm00840904_m1), Asc (Mm00445747_g1), TBP (Mm00446971_m1) or GAPDH (Mm99999915_g1). ELISA for IL-1β, IL-2, IL-17, IL-18, TNFα and IFNγ were performed using Mouse Ready-SET-Go ELISA kits (eBioscience). To measure secreted cytokines, supernatant were collected, clarified by centrifugation and stored at −20° C. Cell associated cytokines were measured as follows: 96-well plates were centrifuged and supernatant was discarded. 250 μl of PBS were added to each well. Cells were frozen and thawed two times at −80° C. and then stored at −20° C. for further analysis.

[2] = system: DCs; assay: Single cell viability assay of inflammasome-containing cells (Zombie dye, active mitochondria); conditions: LPS-pretreated DCs
Method: BMDCs cells were treated with LPS (1 μg/mL) for 3 hours before inflammasome-inducing stimuli challenge. For live or permeability experiment, MitotTacker CMX-ROS (Life Technologies) or Zombie Red (BioLegend) dyes were used in according to manufacturer's instructions before fixation with 4% paraformaldehyde. After permeabilization step using 0.1% Triton X-100 0.2% BSA-PBS, cells were blocked in 2% BSA-PBS and incubated with rabbit anti-ASC pAb (AL177, Adipogen) and mouse anti-caspase-1 mAb (Casper-1, Adipogen) followed by Alexa Fluor 488-conjugated chicken anti-rabbit IgG (Life Technologies) and Alexa Fluor 568-conjugated goat anti-mouse IgG (Life Technologies) diluted in blocking buffer. Nuclei were counterstained with DAPI (Life Technologies) or DRAQ5 (BioLegend). A Zeiss Axiovert 200M confocal microscope or an Olympus BX41 fluorescence microscope was used to acquire images.

[3] = system: LPS-pretreated DCs; assay: ASC and caspase-1 containing speck formation (immunofluorescence); conditions: ATP 1 mM, oxPAPC 120 μM
Method: For live or permeability experiment, MitotTacker CMX-ROS (Life Technologies) or Zombie Red (BioLegend) dyes were used in according to manufacturer's instructions before fixation with 4% paraformaldehyde. After permeabilization step using 0.1% Triton X-100 0.2% BSA-PBS, cells were blocked in 2% BSA-PBS and incubated with rabbit anti-ASC pAb (AL177, Adipogen) and mouse anti-caspase-1 mAb (Casper-1, Adipogen) followed by Alexa Fluor 488-conjugated chicken anti-rabbit IgG (Life Technologies) and Alexa Fluor 568-conjugated goat anti-mouse IgG (Life Technologies) diluted in blocking buffer. Nuclei were counterstained with DAPI (Life Technologies) or DRAQ5 (BioLegend). A Zeiss Axiovert 200M confocal microscope or an Olympus BX41 fluorescence microscope was used to acquire images.

[4] = system: DCs; assay: TNFα secretion from DCs (ELISA); conditions: WT and caspase-11 KO DCs
Excerpt: C57BL/6J (Jax 000664), C57BL/6NJ (Jax 005304), CD14 KO (Jax 003726), caspase-1/-11 dKO mice (Jax 016621), TLR4-mutant (C3H/HeJ, Jax 000659), and wild-type control for TLR4-mutant (C3H/HeSNJ, Jax 000661) were purchased from Jackson Labs. NLRP3 KO and ASC KO mice were kindly provided by Dr. T. Horng, Harvard School of Public Health. Caspase-11 KO mice were kindly provided by Dr. Junying Yuan, Harvard Medical School. Caspase-1 single KO mice were kindly provided by Thirumala-Devi Kanneganti (St. Judes). DCs were differentiated from bone marrow in IMDM (Gibco), 10% B16-GM-CSF derived supernatant, 2 μM 2-mercaptoethanol and 10% FBS and used after 6 day of culture. DC purity was assessed by flow cytometry and was usually higher than 90%. MO were differentiated from bone marrow in DMEM (Gibco), 30% L929 supernatant, and 10% FBS. Immortal MΦs were cultured in DMEM supplemented with 10% L929 supernatant and 10% FBS. Splenic DCs were purified as described previously (Zanoni et al., 2012). Prior to stimulations, cultured cells were washed and re-plated in DMEM supplemented with 10% FBS at a concentration of 1×10^6 cells/ml in a final volume of 100 μl. For experiments using pan-caspase inhibitor, cells were treated with zVADfmk (20 μM) 30 min before inflammasome activation stimuli addition. […]
as §1, with “To measure secreted cytokines, supernatant were collected, clarified by centrifugation and stored at −20° C.” left out, “250 μl of PBS were added to each well. Cells were frozen and thawed two times at −80° C. and then stored at −20° C. for further analysis.” left out

[5] = system: DCs; assay: Pyroptosis / cell death by LDH release; conditions: LPS-primed DCs
Excerpt: In addition to promoting IL-β release, inflammasome activation has been typically associated with the induction of cell death (Aachoui, Y., (2013b). Current opinion in microbiology 16, 319-326). Without wishing to be bound by theory, cell death via non-canonical inflammasomes is believed to depend upon the enzymatic activity of caspase-11, which must cleave at least two proteins, gasdermin d and pannexin-1 (Kayagaki, N. et al., (2015) Nature 526, 666-671; Shi, J. et al., (2015) Nature 526, 660-665; Yang, D. et al., (2015) Immunity 43, 923-932). […] To assess this possibility directly, pyroptosis induction after oxPAPC administration or LPS transfection in LPS-primed DCs was measured. Pyroptosis is characterized by a rapid loss of plasma membrane integrity, which should release cytoplasmic proteins (and organelles) from the cell body. LDH release in the supernatant was used to assess membrane permeabilization of the cell population during pyroptosis. LPS/ATP-treated cells released LDH starting 4 hours after treatment (FIG. 48A); this combination was a well-defined activator of inflammasome-mediated cell death (Aachoui, Y., (2013b). Current opinion in microbiology 16, 319-326). Cells transfected with LPS, independently from LPS priming, died at later time points than cells treated with ATP (FIG. 48A).

[6] = system: DCs; assay: DC viability / survival (7-AAD staining); conditions: up to 72 hours after treatment; ATP and oxPAPC in LPS-treated DCs
Excerpt: It was contemplated that living cells should resist staining with Zombie dye, a stain that labels the cytosol of cells whose plasma membranes have been disrupted. Cells with intact plasma membranes should also retain functional organelles. In contrast, pyroptotic cells should have lost their organelles and should stain strongly for Zombie dye. […] Moreover, not only did oxPAPC not induce pyroptosis, this lipid counteracted the slow acting death pathways activated by LPS in DCs (Zanoni, I. et al. (2009) Nature 460, 264-268). For this experiment, the health of individual cells within the population up to 72 hours after treatment was assessed by flow cytometry, using the viability stain 7-AAD, which detected genomic DNA within cells whose membranes had been permeabilized (Paterson, A. M. et al., (2011) J Immunol 187, 1097-1105).

[7] = system: primary bone marrow-derived MΦs; assay: IL-1β release from macrophages (ELISA)
Excerpt: C57BL/6J (Jax 000664), C57BL/6NJ (Jax 005304), CD14 KO (Jax 003726), caspase-1/-11 dKO mice (Jax 016621), TLR4-mutant (C3H/HeJ, Jax 000659), and wild-type control for TLR4-mutant (C3H/HeSNJ, Jax 000661) were purchased from Jackson Labs. NLRP3 KO and ASC KO mice were kindly provided by Dr. T. Horng, Harvard School of Public Health. Caspase-11 KO mice were kindly provided by Dr. Junying Yuan, Harvard Medical School. Caspase-1 single KO mice were kindly provided by Thirumala-Devi Kanneganti (St. Judes). DCs were differentiated from bone marrow in IMDM (Gibco), 10% B16-GM-CSF derived supernatant, 2 μM 2-mercaptoethanol and 10% FBS and used after 6 day of culture. DC purity was assessed by flow cytometry and was usually higher than 90%. […]
RNA was isolated from cell cultures using Qiashedder (Qiagen) and GeneJET RNA Purification Kit (Life Technologies). Purified RNA was analyzed for gene expression on a CFX384 real time cycler (Bio-rad) using TaqMan RNA-to-CT 1-Step Kit (Applied Biosystems) with probes purchased from Life Technologies specific for viperin (Mm00491265_m1), IFNb1 (Mm00439552_s1), IL6 (Mm00446190_m1), caspase-1 (Mm00438023_m1), caspase-11 (Mm00432307_m1), Nlrp3 (Mm00840904_m1), Asc (Mm00445747_g1), TBP (Mm00446971_m1) or GAPDH (Mm99999915_g1). ELISA for IL-1β, IL-2, IL-17, IL-18, TNFα and IFNγ were performed using Mouse Ready-SET-Go ELISA kits (eBioscience). […]

SMILES: Nc1ncnc2c1ncn2[C@@H]1O[C@H](COP(=O)(O)OP(=O)(O)OP(=O)(O)O)[C@@H](O)[C@H]1O [ATP]
- IL-1β release ([1]; BMDCs lacking caspase-1/-11 or ASC): completely lost
- IL-1β release ([1]; LPS-primed DCs): elicit IL-1β release from DCs in a dose-dependent manner
- IL-1β release ([1]; LPS-primed caspase-11 KO DCs): remained intact
- cell-associated IL-1β levels ([1]; LPS-primed, compared with LPS alone): similar
- IL-1β release ([1]; NLRP3-deficient BMDCs): NLRP3 dependent
- IL-1β release ([1]; Pam3CSK-primed caspase-11 KO cells): remained intact
- mitochondria and Zombie dye staining of cells containing ASC specks [2]: lost mitochondria and stained positive for Zombie dye
- formation of ASC and caspase-1-containing specks [3]: induced the formation
- TNFα secretion [4]: not affected
- time from which LDH was released [5]: ≥ 4 h
- DC viability (7-AAD) [6]: diminished DC viability
- IL-1β release [7]: promoted the efficient release of IL-1β
